Source: PMC7998700, “Mycobacterial Epoxide Hydrolase EphD Is Inhibited by Urea and Thiourea Derivatives” (International Journal of Molecular Sciences, 2021)

Tests used:
EphB = EphB (Mycobacterium tuberculosis, UniProt I6YC03); assay: radio-TLC substrate conversion to diol, E. coli lysate supernatant; assay type: biochemical; settings: 50 mM Tris-HCl pH 7.5, 37 °C; labelled compound
EphE = EphE (Mycobacterium tuberculosis, UniProt I6YCQ4)
EphD [1] = target: T1, EphD (Mycobacterium tuberculosis, UniProt P9WGS3)
EphF [2] = target: T2, EphF (Mycobacterium tuberculosis, UniProt P96811)
EphA = EphA (Mycobacterium tuberculosis, UniProt I6YGS0)
EphG = EphG (Mycobacterium tuberculosis, UniProt O33283)
EphF [3] = target: T2, EphF; assay: radio-TLC epoxide hydrolase assay, E. coli lysate supernatant; assay type: biochemical; settings: substrate [14C]-9,10-cis-epoxystearic acid; 50 mM Tris-HCl pH 7.5, 37 °C, 15 min; without EthA; 2% DMSO
EphD [4] = target: T1, EphD; assay: as above; assay type: biochemical; settings: substrate [14C]-9,10-cis-epoxystearic acid; 50 mM Tris-HCl pH 7.5, 37 °C, 15 min; without EthA; 2% DMSO

T1 sequence (P9WGS3 whole entry): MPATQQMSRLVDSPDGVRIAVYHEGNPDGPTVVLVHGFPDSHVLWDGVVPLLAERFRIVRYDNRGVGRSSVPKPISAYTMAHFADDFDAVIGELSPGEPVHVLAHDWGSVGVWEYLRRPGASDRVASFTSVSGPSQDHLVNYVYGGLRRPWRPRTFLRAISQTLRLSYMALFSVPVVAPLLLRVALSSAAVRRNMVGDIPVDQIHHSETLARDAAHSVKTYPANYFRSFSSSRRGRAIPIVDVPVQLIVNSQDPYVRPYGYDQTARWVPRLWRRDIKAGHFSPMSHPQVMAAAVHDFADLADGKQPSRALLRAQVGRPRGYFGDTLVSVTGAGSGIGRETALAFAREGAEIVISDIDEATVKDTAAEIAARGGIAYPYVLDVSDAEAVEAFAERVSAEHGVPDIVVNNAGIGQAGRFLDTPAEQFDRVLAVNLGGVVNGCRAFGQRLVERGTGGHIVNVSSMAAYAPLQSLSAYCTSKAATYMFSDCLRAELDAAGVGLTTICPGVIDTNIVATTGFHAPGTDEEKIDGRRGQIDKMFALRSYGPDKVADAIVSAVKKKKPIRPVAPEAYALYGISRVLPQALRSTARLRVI
T2 sequence (P96811 entry or part of it): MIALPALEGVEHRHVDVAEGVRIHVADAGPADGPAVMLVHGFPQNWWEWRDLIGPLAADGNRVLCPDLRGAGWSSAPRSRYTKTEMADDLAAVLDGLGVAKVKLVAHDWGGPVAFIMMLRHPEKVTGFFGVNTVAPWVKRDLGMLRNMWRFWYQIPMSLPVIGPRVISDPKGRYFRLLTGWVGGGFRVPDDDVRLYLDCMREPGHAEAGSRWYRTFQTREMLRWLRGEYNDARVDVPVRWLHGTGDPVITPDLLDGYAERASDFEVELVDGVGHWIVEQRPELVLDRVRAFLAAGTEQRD
EphG, sequence (O33283 whole entry): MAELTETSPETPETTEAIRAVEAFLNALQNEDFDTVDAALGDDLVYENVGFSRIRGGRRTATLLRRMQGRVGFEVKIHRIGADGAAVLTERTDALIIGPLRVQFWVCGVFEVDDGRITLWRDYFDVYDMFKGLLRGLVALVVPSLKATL
EphB, sequence (I6YC03 whole entry): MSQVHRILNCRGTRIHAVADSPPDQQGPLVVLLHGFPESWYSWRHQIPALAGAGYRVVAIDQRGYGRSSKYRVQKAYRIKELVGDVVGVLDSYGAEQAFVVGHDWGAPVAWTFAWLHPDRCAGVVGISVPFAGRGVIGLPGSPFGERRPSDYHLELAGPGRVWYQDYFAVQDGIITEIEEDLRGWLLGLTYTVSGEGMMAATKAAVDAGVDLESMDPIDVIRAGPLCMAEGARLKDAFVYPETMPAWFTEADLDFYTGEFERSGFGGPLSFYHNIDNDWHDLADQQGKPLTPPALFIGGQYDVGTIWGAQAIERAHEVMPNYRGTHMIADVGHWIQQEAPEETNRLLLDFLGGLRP
EphA, sequence (I6YGS0 whole entry): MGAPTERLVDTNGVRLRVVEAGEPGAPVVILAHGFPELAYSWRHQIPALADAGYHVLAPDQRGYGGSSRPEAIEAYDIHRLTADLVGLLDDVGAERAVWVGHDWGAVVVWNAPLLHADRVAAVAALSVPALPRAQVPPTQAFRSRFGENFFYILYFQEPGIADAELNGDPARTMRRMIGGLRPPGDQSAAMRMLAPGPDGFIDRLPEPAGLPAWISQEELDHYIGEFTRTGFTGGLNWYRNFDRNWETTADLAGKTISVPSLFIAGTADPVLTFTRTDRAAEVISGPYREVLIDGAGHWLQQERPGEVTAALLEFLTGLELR
EphE, sequence (I6YCQ4 entry or part of it): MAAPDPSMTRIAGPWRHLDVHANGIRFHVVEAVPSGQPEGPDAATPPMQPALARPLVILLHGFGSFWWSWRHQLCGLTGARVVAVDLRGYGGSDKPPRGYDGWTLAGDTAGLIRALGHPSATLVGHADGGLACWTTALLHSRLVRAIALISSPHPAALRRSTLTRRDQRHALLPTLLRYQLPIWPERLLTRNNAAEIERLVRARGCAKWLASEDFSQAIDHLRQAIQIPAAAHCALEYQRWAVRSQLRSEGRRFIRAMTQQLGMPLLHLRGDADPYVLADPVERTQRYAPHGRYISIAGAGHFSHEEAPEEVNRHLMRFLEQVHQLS

| SMILES | radio-TLC substrate conversion to diol, E. coli lysate supernatant (EphB) | radio-TLC substrate conversion to diol, E. coli lysate supernatant (EphE) | radio-TLC substrate conversion to diol, E. coli lysate supernatant (EphD [1]) | radio-TLC substrate conversion to diol, E. coli lysate supernatant (EphF [2]) | radio-TLC substrate conversion to diol, E. coli lysate supernatant (EphA) | radio-TLC substrate conversion to diol, E. coli lysate supernatant (EphG) | % inhibition at 10 μg/mL (EphF [3]) | % inhibition at 10 μg/mL (EphD [4]) |
| --- | --- | --- | --- | --- | --- | --- | --- | --- |
| CCCCCCCC[C@H]1O[C@H]1CCCCCCCC(=O)O [9,10-cis-epoxystearic acid] | The EH activity in each reaction was expressed as a substrate conversion percentage | The EH activity in each reaction was expressed as a substrate conversion percentage | The EH activity in each reaction was expressed as a substrate conversion percentage | The EH activity in each reaction was expressed as a substrate conversion percentage | The EH activity in each reaction was expressed as a substrate conversion percentage | The EH activity in each reaction was expressed as a substrate conversion percentage |  |  |
| CC(C)CCOc1ccc(NC(=S)Nc2ccc(OCCC(C)C)cc2)cc1 [ISO, 4,4′-diisoamyloxydiphenylthiourea] |  |  |  |  |  |  | The activities of EphD and EphF are inhibited by ISO | The activities of EphD and EphF are inhibited by ISO |
